This assay concerns the target T1, Protein O-GlcNAcase (Homo sapiens, UniProt O60502).
T1 sequence (O60502 whole entry): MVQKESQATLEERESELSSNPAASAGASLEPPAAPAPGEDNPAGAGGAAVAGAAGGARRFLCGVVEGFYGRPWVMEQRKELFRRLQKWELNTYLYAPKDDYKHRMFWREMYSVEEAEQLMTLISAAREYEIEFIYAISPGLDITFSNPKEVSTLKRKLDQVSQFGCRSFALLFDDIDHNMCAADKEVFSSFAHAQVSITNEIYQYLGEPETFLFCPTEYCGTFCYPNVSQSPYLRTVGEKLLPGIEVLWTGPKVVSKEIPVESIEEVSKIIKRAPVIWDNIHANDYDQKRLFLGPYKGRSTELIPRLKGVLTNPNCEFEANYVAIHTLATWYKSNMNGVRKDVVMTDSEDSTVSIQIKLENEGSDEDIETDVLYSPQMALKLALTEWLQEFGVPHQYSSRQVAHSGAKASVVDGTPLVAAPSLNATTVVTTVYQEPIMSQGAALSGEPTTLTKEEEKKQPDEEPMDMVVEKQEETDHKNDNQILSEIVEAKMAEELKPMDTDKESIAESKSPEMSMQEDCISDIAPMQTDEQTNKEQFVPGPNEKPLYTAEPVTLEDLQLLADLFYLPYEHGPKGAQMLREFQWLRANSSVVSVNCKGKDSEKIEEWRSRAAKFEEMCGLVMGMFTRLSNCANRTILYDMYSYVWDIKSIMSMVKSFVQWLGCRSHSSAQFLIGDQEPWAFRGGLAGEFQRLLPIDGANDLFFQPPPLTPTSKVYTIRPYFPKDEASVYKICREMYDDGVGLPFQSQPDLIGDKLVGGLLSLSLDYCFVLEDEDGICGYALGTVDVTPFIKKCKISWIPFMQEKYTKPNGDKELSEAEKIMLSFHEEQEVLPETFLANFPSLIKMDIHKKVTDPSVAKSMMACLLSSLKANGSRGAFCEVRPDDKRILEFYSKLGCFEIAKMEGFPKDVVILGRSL
As to the kind of experiment: OGA Enzyme Inhibition Biochemical Assay. The protocol: Recombinant full length human OGA enzyme was purchased from Origene. 4-MUGlcNAc substrate was purchased from Sigma. All other reagents were purchased from Sigma or Fisher. Assay buffer consists of the McIlvaine buffer system, pH 6.4 (0.2M Na2HPO4 mixed with 0.1M citric acid) and 0.01% BSA. […] Reactions were incubated for 90 minutes at room temperature and quenched with 40 μl of 3M glycine, pH 10 and read on a Perkin Elmer Envision plate reader (Ex: 355 nm/Em: 460 nm). Compounds were tested with a 10-point dose-response starting from 20 μM with a 4-fold dilution. Data was fit using GraphPad Prism using a 4-parameter fit with variable slope.
As usually defined, the IC50 is the midpoint of a concentration-inhibition curve. A high value points to weaker potency. The compound `COc1nccc2c1COC21C[C@H](C)N(Cc2sc(NC(C)=O)nc2F)C1` (some centres undefined) [US12565504, Example 77] registered a concentration for half-maximal inhibition (IC50) of 4 nM.
In turn, `COc1cc2c(cn1)[C@@]1(C[C@H](C)N(Cc3sc(NC(C)=O)nc3F)C1)OC2` (single isomer, unassigned) [US12565504, Example 75-b] returned an IC50 of 47 nM.
`COc1cc2c(cn1)[C@]1(C[C@H](C)N(Cc3sc(NC(C)=O)nc3F)C1)OC2` (single isomer, unassigned) [US12565504, Example 75-a]: the IC50 is 10 nM.
For the compound `CC(=O)Nc1nc(F)c(CN2CC3(C[C@@H]2C)OCc2ncccc23)s1` (some centres undefined) [US12565504, Example 79], the midpoint of inhibition, the IC50, lay at 10 nM.

The values above are taken from BindingDB's records for patent US12565504 (Biogen Ma, 2026).
